From PMC10108347, “Heterobifunctional Ligase Recruiters Enable pan-Degradation of Inhibitor of Apoptosis Proteins” (Journal of Medicinal Chemistry, 2023) come the findings set out here.

pIC50: −log10 of the molar value. Entries after “also recorded” stand apart in the source; their conditions may differ. Read-outs that look alike come from different tables or passages of the source.

The subject of one data set is K562. In words: CellTiter-Glo cell viability assay, K562. The class given is cell-based. The method, then:
(§1) As TNF-α and related signaling cascades represent crucial factors for the single-agent activity of IAP-targeting compounds,[29],[38],[39],[55] the viability inhibition of sensitive cell lines was evaluated in the presence and absence of this inflammatory stimulus. […] These effects were independent of IAP baseline levels (Figure S16), which is in agreement with the previous studies of IAP antagonists.
(§2) Cells were seeded in 384-well plates with respective treatments, and plates were incubated at 37 °C for 96 h. Viability assays were performed with or without the addition of TNF-α at 1 ng/mL. The cell viability readout was measured using the CellTiter-Glo Luminescent Cell Viability Assay (Promega, Madison, USA) and measured with a Synergy LX Multi-Mode plate reader (BioTek, Vermont, USA). All conditions were normalized to the DMSO-treated control. Data represents the mean ± SD of biological triplicates.
On the technique in general: ATP-based viability assays read luminescence as a measure of living cells.

The subject of another data set is DB. Put plainly: CellTiter-Glo cell viability assay, DB. The class given is cell-based. The protocol: as §1, §2
For a further data set, the system named is MOLM13. Put plainly: CellTiter-Glo cell viability assay, MOLM13. The class given is cell-based. The protocol:
as §1, §2

The next data set deals with JJN3. In words: CellTiter-Glo cell viability assay, JJN3. It counts as cell-based. The method, then: as §1, §2
The next data set concerns SUDHL4. Put plainly: CellTiter-Glo cell viability assay, SUDHL4. The class given is cell-based. The protocol:
as §1, §2

The test system of a further data set is HEL. In words: CellTiter-Glo cell viability assay, HEL. The class given is cell-based. The protocol:
as §1, §2

Another data set concerns RPMI-8826. In words: CellTiter-Glo cell viability assay, RPMI-8826. The class given is cell-based. The protocol:
as §1, §2

Data set [1] deals with IAPs (cIAP1, cIAP2, XIAP). In words: Immunoblotting of IAPs in MM.1S cells, overall degradation profile, time course and washout. To be noted: 16 h, western blot, concentration (10 nM to 1 μM). The class given is cell-based. The protocol:
Next, we examined the persistence of IAP degradation in MM.1S cells after a single exposure to 1 μM of 9 and subsequent removal of the compound. […] The reliance on CRL2^VHL was assessed with a neddylation inhibitor MLN4924, which blocks the activity of CRLs (Figure S13A).
A general note: In western blotting, separated proteins are transferred to a membrane and probed.

The next data set relates to NCI-H929. In words: CellTiter-Glo cell viability assay, NCI-H929. The class given is cell-based. The method, then:
as §1, §2

A further data set relates to SUDHL6. Put plainly: CellTiter-Glo cell viability assay, SUDHL6. The class given is cell-based. The method, then:
as §1, §2

Data set [2] can be described thus: Log D7.4 measurement by chromatographic (fast-gradient HPLC) method. The following applies: pH 7.4.
Description: The system was calibrated by plotting the retention times of six different drugs (atenolol, metoprolol, labetalol, diltiazem, triphenylene, and permethrin) versus their literature-known log D7.4 in a calibration line (R^2 = 0.99). Subsequently, the mean retention times of the analytes were taken to calculate their log D7.4 values with the aid of the calibration line. At least two independent measurements of each analyte were performed.
For a further data set, the target named is XIAP (Homo sapiens, UniProt P98170). Put plainly: Immunoblotting (western blot) quantification of XIAP levels in MM.1S cells. To be noted: MM.1S cells, 16 h, western blot, 0.1 or 1 μM.
In another data set the target is cIAP2 (Homo sapiens, UniProt Q13489). Put plainly: Immunoblotting (western blot) quantification of cIAP2 levels in MM.1S cells. To be noted: MM.1S cells.
Where [3] appears, read: Homo sapiens, SI csv, head prints only the cell line, no quantity or unit, values parallel Table 1/S8, read-out: K562.
[4] abbreviates: Homo sapiens, JJN-3, SI csv, head prints only the cell line, no quantity or unit, values parallel Table 1/S8, read-out: JJN3.
The mark [5] stands for this setting: Homo sapiens, SU-DHL-4, SI csv, head prints only the cell line, no quantity or unit, values parallel Table 1/S8, read-out: SUDHL4.
The mark [6] stands for this setting: MM cell line, 96 h, TNFα-challenged, read-out: IC50 cell viability RPMI-8826.
Where [7] appears, read: SI csv, head prints only the cell line, no quantity or unit, values parallel Table 1/S8, read-out: RPMI-8826.
The mark [8] stands for this setting: Homo sapiens, SI csv, head prints only the cell line, no quantity or unit, values parallel Table 1/S8, read-out: NCI-H929.

Sequence of cIAP2 (Q13489 whole entry): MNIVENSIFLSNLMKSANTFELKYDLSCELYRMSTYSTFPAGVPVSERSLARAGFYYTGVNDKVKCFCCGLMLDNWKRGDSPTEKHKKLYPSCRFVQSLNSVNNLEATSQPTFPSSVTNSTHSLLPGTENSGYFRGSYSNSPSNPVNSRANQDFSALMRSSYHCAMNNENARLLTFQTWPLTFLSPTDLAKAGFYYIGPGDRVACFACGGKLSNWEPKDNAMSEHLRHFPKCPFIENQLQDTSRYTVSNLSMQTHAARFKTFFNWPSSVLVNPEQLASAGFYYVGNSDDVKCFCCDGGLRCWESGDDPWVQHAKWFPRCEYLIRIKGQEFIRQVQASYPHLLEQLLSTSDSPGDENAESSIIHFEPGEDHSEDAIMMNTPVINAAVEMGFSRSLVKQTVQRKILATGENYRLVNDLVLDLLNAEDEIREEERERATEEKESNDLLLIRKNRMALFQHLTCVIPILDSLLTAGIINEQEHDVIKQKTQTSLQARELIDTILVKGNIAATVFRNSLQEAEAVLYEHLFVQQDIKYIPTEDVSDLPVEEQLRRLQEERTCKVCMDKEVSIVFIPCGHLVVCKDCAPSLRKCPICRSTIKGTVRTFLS
Sequence of XIAP (P98170 whole entry): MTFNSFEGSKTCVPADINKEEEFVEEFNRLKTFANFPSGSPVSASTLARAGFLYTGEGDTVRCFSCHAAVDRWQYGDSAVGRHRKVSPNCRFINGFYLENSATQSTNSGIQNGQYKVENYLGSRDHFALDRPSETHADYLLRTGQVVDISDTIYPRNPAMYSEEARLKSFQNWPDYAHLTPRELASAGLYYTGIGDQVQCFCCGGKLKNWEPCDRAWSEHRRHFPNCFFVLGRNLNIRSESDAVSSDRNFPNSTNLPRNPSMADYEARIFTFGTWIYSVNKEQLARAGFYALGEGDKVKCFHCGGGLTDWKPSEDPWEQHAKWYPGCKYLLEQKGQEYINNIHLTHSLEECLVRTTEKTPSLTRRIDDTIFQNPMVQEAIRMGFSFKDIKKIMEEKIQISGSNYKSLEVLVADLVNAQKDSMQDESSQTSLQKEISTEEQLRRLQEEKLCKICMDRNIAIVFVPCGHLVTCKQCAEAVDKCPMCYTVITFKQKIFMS

As a reminder, the chromatographic logD is a lipophilicity value derived from retention on a column. Lower therefore signals a more hydrophilic compound. With `CN[C@@H](C)C(=O)N[C@H](C(=O)N1C[C@@H](Oc2cccc(OCCCCC(=O)N[C@H](C(=O)N3C[C@@H](O)C[C@H]3C(=O)NCc3ccc(-c4scnc4C)cc3)C(C)(C)C)c2)C[C@H]1C(=O)N[C@@H]1CCCc2ccccc21)C1CCCCC1` [PROTAC 11, (2S,4S)-1-((S)-2-Cyclohexyl-2-((S)-2-(methylamino)propanamido)acetyl)-4-(3-((5-(((S)-1-((2S,4S)-4-hydroxy-2-((4-(4-methylthiazol-5-yl)benzyl)carbamoyl)pyrrolidin-1-yl)-3,3-dimethyl-1-oxobutan-2-yl)amino)-5-oxopentyl)oxy)phenoxy)-N-((R)-1,2,3,4-tetrahydronaphthalen-1-yl)pyrrolidine-2-carboxamide], the pIC50 with K562 (Homo sapiens, K562, AML cell line, 96 h, TNFα-challenged, read-out: IC50 cell viability K562) was under 5.30; with K562 (setting [3]), under 5.00; with DB (Homo sapiens, DB, DLBCL cell line, 96 h, TNFα-challenged, read-out: IC50 cell viability DB), under 5.30; with MOLM13 (Homo sapiens, MOLM-13, AML cell line, 96 h, TNFα-challenged, read-out: IC50 cell viability MOLM13) it was under 6.00; with JJN3 (Homo sapiens, JJN-3, MM cell line, 96 h, TNFα-challenged, read-out: IC50 cell viability JJN3) it was under 5.30; in the data set with JJN3 (setting [4]), under 5.00. For the same molecule, the pIC50 was under 5.30 in the data set with SUDHL4 (Homo sapiens, SU-DHL-4, DLBCL cell line, 96 h, TNFα-challenged, read-out: IC50 cell viability SUDHL4); under 5.00 in the data set with SUDHL4 (setting [5]); under 5.00 in the data set with HEL (Homo sapiens, HEL, AML cell line, 96 h, TNFα-challenged, read-out: IC50 cell viability HEL); under 5.30 in the data set on RPMI-8826 (setting [6]); under 5.00 with RPMI-8826 (setting [7]); under 5.30 in the data set on NCI-H929 (Homo sapiens, NCI-H929, MM cell line, 96 h, TNFα-challenged, read-out: IC50 cell viability NCI-H929). The pIC50 with NCI-H929 (setting [8]) was under 5.00; in the data set with SUDHL6 (Homo sapiens, SU-DHL-6, DLBCL cell line, 96 h, TNFα-challenged, read-out: IC50 cell viability SUDHL6), 6.77. Also, in data set [1], the “IAP degradation profile (in words)” value is given as “induce only cIAP1 degradation; also recorded: only induced cIAP1 degradation”. In addition, the chromatographic logD in data set [2] turned out to be 3.3.

Turning to `CN[C@@H](C)C(=O)N[C@H](C(=O)N1C[C@@H](Oc2cccc(OCCOCCCCCCOCCCCCCNc3cccc4c3C(=O)N(C3CCC(=O)N(C)C3=O)C4=O)c2)C[C@H]1C(=O)N[C@@H]1CCCc2ccccc21)C1CCCCC1` (stereo partly drawn) [PROTAC 28, (2S,4S)-1-((S)-2-Cyclohexyl-2-((S)-2-(methylamino)propanamido)acetyl)-4-(3-(2-((6-((6-((2-(1-methyl-2,6-dioxopiperidin-3-yl)-1,3-dioxoisoindolin-4-yl)amino)hexyl)oxy)hexyl)oxy)ethoxy)phenoxy)-N-((R)-1,2,3,4-tetrahydronaphthalen-1-yl)pyrrolidine-2-carboxamide], the pIC50 with K562 (setting [3]) is 6.08; in the data set with DB (Homo sapiens, SI csv, head prints only the cell line, no quantity or unit, values parallel Table 1/S8, read-out: DB), 6.24; with MOLM13 (Homo sapiens, MOLM-13, SI csv, head prints only the cell line, no quantity or unit, values parallel Table 1/S8, read-out: MOLM13) it was 6.20; with JJN3 (setting [4]), 6.05; in the data set on SUDHL4 (setting [5]), 6.00; with HEL (Homo sapiens, SI csv, head prints only the cell line, no quantity or unit, values parallel Table 1/S8, read-out: HEL), 6.11. Further, the pIC50 with RPMI-8826 (setting [7]) is 6.00; in the data set with NCI-H929 (setting [8]), 5.70; in the data set on SUDHL6 (Homo sapiens, SU-DHL-6, SI csv, head prints only the cell line, no quantity or unit, values parallel Table 1/S8, read-out: SUDHL6) it was 6.36. The “XIAP degradation (in words)” value at XIAP is recorded as “failed to degrade XIAP at 1 μM concentration; also recorded: only marginally degrades XIAP”. Also, at cIAP2 (16 h, 1 μM), the “remaining protein cIAP2” value is 32%. The molecule further had a chromatographic logD in data set [2] of 6.

On to VH298 [reference compound], for which the pIC50 is under 5.00 in the data set on K562 (AML cell line, 96 h, TNFα-challenged, read-out: IC50 cell viability K562); under 5.00 with DB (DLBCL cell line, 96 h, TNFα-challenged, read-out: IC50 cell viability DB); under 5.00 with MOLM13 (AML cell line, 96 h, TNFα-challenged, read-out: IC50 cell viability MOLM13); under 5.00 in the data set with JJN3 (MM cell line, 96 h, TNFα-challenged, read-out: IC50 cell viability JJN3); under 5.00 in the data set on SUDHL4 (DLBCL cell line, 96 h, TNFα-challenged, read-out: IC50 cell viability SUDHL4); under 5.00 in the data set with HEL (AML cell line, 96 h, TNFα-challenged, read-out: IC50 cell viability HEL). Moreover, the pIC50 is under 5.00 in the data set on RPMI-8826 (setting [6]); under 5.00 with NCI-H929 (MM cell line, 96 h, TNFα-challenged, read-out: IC50 cell viability NCI-H929); under 5.00 in the data set on SUDHL6 (DLBCL cell line, 96 h, TNFα-challenged, read-out: IC50 cell viability SUDHL6). In addition, at cIAP2 (16 h treatment at 0.1 μM, normalized to loading control and DMSO), the “%remaining protein cIAP2” value was determined as 81%. Further, the “IAP degradation profile (in words)” value in [1] is on record as “did not affect the levels of IAPs; also recorded: has no effects on the investigated proteins”.
